Assay results published in US20250154144A1 (CHILDREN'S HOSPITAL MEDICAL CENTER, priority 2021, published 2025).

System: THP1 cells
Test: Combination drug screening, Cell Titer Glo, 10 × 10 matrix, THP1 cells
Type: cell-based
[1] = THP1 cells, 10 × 10, combination with (+)-BAY-1251152
[2] = THP1 cells, 10 × 10, combination with AMG-232
[3] = THP1 cells, 10 × 10, combination with AZD-5363
[4] = THP1 cells, 10 × 10, combination with Eprenetapopt/APR-246
[5] = THP1 cells, 10 × 10, combination with Ivosidenib
[6] = THP1 cells, 10 × 10, combination with Lenalidomide
[7] = THP1 cells, 10 × 10, combination with Palbociclib
[8] = THP1 cells, 10 × 10, combination with Prednisolone
[9] = THP1 cells, 10 × 10, combination with SNDX-5613
[10] = THP1 cells, 10 × 10, combination with TNO-155
[11] = THP1 cells, 10 × 10, combination with Trametinib
[12] = THP1 cells, 10 × 10, combination with Ulixertinib
[13] = THP1 cells, 10 × 10, combination with Venetoclax (ABT-199)
[14] = THP1 cells, combination with AMG-232
[15] = THP1 cells, combination with Venetoclax (ABT-199)
[16] = starting conc. 100 nM, with (+)-BAY-1251152 starting conc. 1000 nM
[17] = starting conc. 100 nM, with Azacitidine (5-Azacytidine) starting conc. 20000 nM
[18] = starting conc. 100 nM, with Palbociclib starting conc. 10000 nM
[19] = starting conc. 100 nM, with Prednisolone starting conc. 10000 nM
[20] = starting conc. 100 nM, with Venetoclax (ABT-199) starting conc. 2000 nM
[21] = starting conc. 100 nM, with Venetoclax (ABT-199) starting conc. 20000 nM
[22] = starting conc. 20000 nM, with (+)-BAY-1251152 starting conc. 1000 nM
[23] = starting conc. 20000 nM, with Azacitidine (5-Azacytidine) starting conc. 20000 nM
[24] = starting conc. 20000 nM, with Palbociclib starting conc. 10000 nM
[25] = starting conc. 20000 nM, with Prednisolone starting conc. 10000 nM
[26] = starting conc. 20000 nM, with TNO-155 starting conc. 10000 nM
[27] = starting conc. 20000 nM, with Venetoclax (ABT-199) starting conc. 2000 nM
[28] = starting conc. 20000 nM, with Venetoclax (ABT-199) starting conc. 20000 nM
[29] = starting conc. 200 nM, with (+)-BAY-1251152 starting conc. 1000 nM
[30] = starting conc. 200 nM, with Azacitidine (5-Azacytidine) starting conc. 20000 nM
[31] = starting conc. 200 nM, with Palbociclib starting conc. 10000 nM
[32] = starting conc. 200 nM, with Prednisolone starting conc. 10000 nM
[33] = starting conc. 200 nM, with TNO-155 starting conc. 10000 nM
[34] = starting conc. 200 nM, with Venetoclax (ABT-199) starting conc. 2000 nM
[35] = starting conc. 200 nM, with Venetoclax (ABT-199) starting conc. 20000 nM

`COc1cc2ncc(-c3ccnc(N[C@@H]4CCCNC4)n3)n2nc1C1CC1` [Compound 50, (R)-4-(6-cyclopropyl-7-methoxyimidazo[1,2-b]pyridazin-3-yl)-N-(piperidin-3-yl)pyrimidin-2-amine] was tested, and the “Excess HSA Score” value [1] was −396.5, the “Excess HSA Score” value [2] was 252 and the “Excess HSA Score” value [3] was −475. The “Excess HSA Score” value [4] was −218.2, the “Excess HSA Score” value [5] was −149.8 and the “Excess HSA Score” value [6] was 333.7. For the same compound, the “Excess HSA Score” value [7] was −273.2, the “Excess HSA Score” value [8] was −429.3 and the “Excess HSA Score” value [9] was −9.013. The “Excess HSA Score” value [10] was 306.2, the “Excess HSA Score” value [11] was −475.4 and the “Excess HSA Score” value [12] was −358.5769. The “Excess HSA Score” value [13] was −2869, the Comments [14] was “Antagonistic” and the Comments [15] was “Synergistic”. The Comments [16] was “Synergistic at both”, the “Excess HSA Score” value [16] was −408.4 and the Comments [17] was “Synergistic at both”. The “Excess HSA Score” value [17] was −164.8, the Comments [18] was “Antagonistic over” and the “Excess HSA Score” value [18] was 19.42. The Comments [19] was “Antagonistic at both”, the “Excess HSA Score” value [19] was 76.0598 and the “Excess HSA Score” value (starting conc. 100 nM, with TNO-155 starting conc. 10000 nM) was 0.06789. For the same compound, the Comments [20] was “Synergistic; Optimal”, the “Excess HSA Score” value [20] was −911.4 and the Comments [21] was “Synergistic; Optimal”. The “Excess HSA Score” value [21] was −1400, the Comments [22] was “Synergistic at both” and the “Excess HSA Score” value [22] was −293.4. For the same compound, the Comments [23] was “Synergistic at both”, the “Excess HSA Score” value [23] was −347.5 and the “Excess HSA Score” value [24] was −482.7. The Comments [25] was “Antagonistic at both”, the “Excess HSA Score” value [25] was 541.6925 and the Comments [26] was “Antagonistic”. For the same compound, the “Excess HSA Score” value [26] was 230.5, the Comments [27] was “Synergistic; Optimal” and the “Excess HSA Score” value [27] was −27.96. The Comments [28] was “Synergistic; Optimal” and the “Excess HSA Score” value [28] was −1808.
With `COc1cc2ncc(-c3cncc(N[C@H]4CNCC[C@@H]4F)n3)n2nc1C1CC1` [Compound 24, 6-(6-cyclopropyl-7-methoxyimidazo[1,2-b]pyridazin-3-yl)-N-((3S,4S)-4-fluoropiperidin-3-yl)pyrazin-2-amine] the “Excess HSA Score” value [1] was −308.4, the “Excess HSA Score” value [2] was 144.3 and the “Excess HSA Score” value [3] was −379.5012. For the same compound, the “Excess HSA Score” value [4] was −87.03, the “Excess HSA Score” value [5] was 107 and the “Excess HSA Score” value [6] was −94.52. The “Excess HSA Score” value [7] was −359.2, the “Excess HSA Score” value [8] was 35 and the “Excess HSA Score” value [9] was 504. For the same compound, the “Excess HSA Score” value [10] was −66.32, the “Excess HSA Score” value [11] was −416.7 and the “Excess HSA Score” value [12] was −298.8. For the same compound, the “Excess HSA Score” value [13] was −2203, the Comments (THP1 cells, combination with Prednisolone) was “Antagonistic” and the Comments [15] was “Synergistic”. For the same compound, the Comments [29] was “Synergistic at both”, the “Excess HSA Score” value [29] was −571 and the Comments [30] was “Synergism is more”. For the same compound, the “Excess HSA Score” value [30] was −34.1, the Comments [31] was “Synergistic at both” and the “Excess HSA Score” value [31] was −217.9. For the same compound, the Comments [32] was “Antagonistic at both”, the “Excess HSA Score” value [32] was 212.2 and the Comments [33] was “Synergistic”. For the same compound, the “Excess HSA Score” value [33] was −37.04, the Comments [34] was “Synergistic; Optimal” and the “Excess HSA Score” value [34] was −888.9. For the same compound, the Comments [35] was “Synergistic; Optimal”, the “Excess HSA Score” value [35] was −1905 and the Comments [22] was “Synergistic at both”. The “Excess HSA Score” value [22] was −641.3, the Comments [23] was “Synergism is more” and the “Excess HSA Score” value [23] was −703.5. For the same compound, the Comments [24] was “Synergistic at both”, the “Excess HSA Score” value [24] was −318.6 and the Comments [25] was “Antagonistic at both”. For the same compound, the “Excess HSA Score” value [25] was 291, the Comments [26] was “Antagonistic over” and the “Excess HSA Score” value [26] was 308.6. The Comments [27] was “Synergistic; Optimal”, the “Excess HSA Score” value [27] was −108.3 and the Comments [28] was “Synergistic; Optimal”. The “Excess HSA Score” value [28] was −1677.
In the case of `CC(O)(c1cn2c(-c3ccnc(N[C@H]4CNCC[C@@H]4F)n3)cnc2cn1)C(F)(F)F` (single isomer, unassigned) [Compound 72], the “Excess HSA Score” value [1] is reported as −155.7, the “Excess HSA Score” value [2] is reported as 364 and the “Excess HSA Score” value [3] is reported as −371.3. The “Excess HSA Score” value [4] was 594.2926, the “Excess HSA Score” value [5] was 175.5 and the “Excess HSA Score” value [6] was 175.9. For the same compound, the “Excess HSA Score” value [7] was −319, the “Excess HSA Score” value [8] was 201.6 and the “Excess HSA Score” value [9] was 342.4. The “Excess HSA Score” value [10] was 908.1, the “Excess HSA Score” value [11] was 354.3 and the “Excess HSA Score” value [12] was 1146. For the same compound, the “Excess HSA Score” value [13] was −1130, the Comments (THP1 cells, combination with Ivosidenib) was “Antagonistic” and the Comments [15] was “Synergistic”.
For `F[C@H]1CCNC[C@@H]1Nc1cncc(-c2cnc3cc(OC4CC4)ccn23)n1` [Compound 12, 6-(7-cyclopropoxyimidazo[1,2-a]pyridin-3-yl)-N-((3S,4S)-4-fluoropiperidin-3-yl)pyrazin-2-amine], the “Excess HSA Score” value [1] was −730.8, the “Excess HSA Score” value [2] was −0.2304 and the “Excess HSA Score” value [3] was −798.3. The “Excess HSA Score” value [4] was 477.7, the “Excess HSA Score” value [5] was −53.98 and the “Excess HSA Score” value [6] was −72.51. The “Excess HSA Score” value [7] was 575.5, the “Excess HSA Score” value [8] was −176.7 and the “Excess HSA Score” value [9] was 75.74. For the same compound, the “Excess HSA Score” value [10] was −498.7, the “Excess HSA Score” value [11] was 300.014 and the “Excess HSA Score” value [12] was −95.31. The “Excess HSA Score” value [13] was −1564, the Comments [14] was “Additive” and the Comments (THP1 cells, combination with SNDX-5613) was “Antagonistic”. The Comments [15] was “Synergistic”.
